Results taken from patent US20060148829A1, “Means for inducing differentiation of supernumerary hair cells and deiters' cells in the developing organ of corti” (priority 2002, published 2006).
Starred links: 1 amine or outer side, 2 acyl side, 3 side chain; linkers in the order of their positions; H or OH if unused. Positions of bridges follow the written chain, without caps; N, C: chain ends. Non-standard residues stand in square brackets, D forms with d. Residues, ends and D or L forms follow the SMILES beside them. Chains are numbered I, II in the order given. Actinocin(9to1) = Cc1c2oc3c(C)ccc(C(=O)[*:1])c3nc-2c(C(=O)[*:2])c(N)c1=O; NMeV = CN[C@H](C(=O)O)C(C)C; Sar = CNCC(=O)O

What was measured:
[1] = test system: rat organ of Corti explants; test: Induction of supernumerary hair cells (HCs) in cultured organ of Corti explants; conditions: for Induction of supernumerary HCs (in words): E19 rat organ of Corti explants, 5 days in culture; for Concentration inducing maximum supernumerary HCs differentiation: isolated organs of Corti, lowest concentration inducing maximum effect, for inactive compounds highest concentration tested 100 :M
Text: Time-pregnant Sprague-Dawley rats or neonates were killed by euthanasia on gestational days 17 (E17), E19, or on postnatal days 0 (day of birth=P0), P2 and P4 with CO2. Both cochleae were dissected free from the calvaria with watchmaker forceps and under a stereomicroscope. Each organ of Corti was freed from surrounding tissues and explanted intact onto the surface of a sterile membrane (Mllicellm, 12 mm, Millipore, Bedford, Mass., USA) in minimum essential medium (MEM; Gibco, Gent, Belgium) into a 24-well culture plate (Nunc). Cultures were incubated at 37° C. in a humidified atmosphere of 95% air and 5% CO2. Medium was renewed every 2 days.
Organs of Corti were dissected from E19 rats and maintained in culture. […] For each condition, the explants were fixed and the supernumerary zones were counted after myosin VIIa immunostaining.
Quantitative analysis of supernumerary HCs production was obtained by counting the number of HCs per length and surface of sensory epithelium regions from the medium turn as previously described (5). If supernumerary cells were actually produced, the number of cells per unit of length should increase while the number of cells per surface unit should remain at the same level. […] The total length of each organ of Corti explant was measured and the extent of the region with supernumerary HCs was expressed as percent of total length. These supernumerary regions were defined by the presence of more than four rows of HCs.

CDK1/cyclin B = conditions: Knockaert et al, 2002b; cited from earlier work
[2] = test system: E19 explants of organ of Corti; test: BrdU labelling of cell proliferation in organ of Corti explants; assay type: cell-based, rat
Description: Immunohistochemistry, immunocytochemistry and confocal microscopy were carried out as previously described (4;5). Whole-mount preparations or cryostat sections (10-20 :m) were fixed with either 4% paraformaldehyde (10 min. at 20° C.) or methanol (5 min. at −20° C.). Primary antibodies incubations were performed overnight at 4° C. Preparations were washed three times in PBS before incubating with a secondary antibody conjugated to alexa488, alexa568 or TRITC fluorophore for 1 hour at 20° C. Sequential double labeling experiments were done with a 4% paraformaldehyde fixation step in between each immunoreaction. Preparations were mounted on microscope slides and coverslipped with Fluoprep mounting medium (BioMérieux, Marcy l'Etoile, France) and imaged using a Bio-Rad MRC1024 laser scanning confocal microscope. To label cells in S phase in vitro, BrdU (10 :M, Sigma, USA) which is incorporated into replicating DNA, was added to the cultures for 2 or 5DIV prior staining.

[3] = Administration to patients suffering of deafness; assay type: in vivo; conditions: regularly administered
[4] = test system: mouse organs of Corti (Math1 genotypes); test: Roscovitine-induced HCs in organs of Corti of wild type, Math1-null and heterozygote mice; assay type: cell-based; conditions: 5DIV
Description: Math1 knockout mice were generated by replacing the Math1 open reading frame (ORF) with the selectable marker PGKhprt as previously described by Ben-Arie et al.(l). Math1^∃^gal/^∃^-gal knock-in mice were generated by replacing the Math1 ORF with a ∃-galactosidase (∃-gal) reporter gene so that ∃-gal is expressed in all cells that express Math1 (2).
Whole-mount lacZ staining was carried out on cultured E15.5 organ of Corti explants as previously described (2;3). After 5DIV, explants were fixed in 4% paraformaldehyde for 20 minutes, washed thoroughly in PBS and equilibrate in X-gal staining buffer (5 mM potassium ferricyanide, 5 mM potassium ferrocyanide, 0.02% NP40, and 0.01% sodium deoxycholate). Explants were stained overnight in X-gal buffer with X-gal (1 mg/ml) then post-fixed in 4% paraformaldehyde. Genotyping of tail DNA was performed using Southern analysis of EcoRI digested DNA and probes as previously described (1).

[5] = test system: E19 rat organ of Corti explants; test: TUNEL labelling of apoptosis in organ of Corti explants; assay type: cell-based; conditions: 10 :M, after 1, 2 or 5 DIV
Text: The apoptosis in E19 rat organ of Corti explants was looked for by staining the specimens cultured for 1, 2 or 5DIV with the terminal deoxynudeotidyl transferase-mediated dUTP nick-end labelling (TUNEL) method using the ApopTag fluorescent detection kit (Oncor, Gaitherburg, Md.) as previously described (6).

Row | Compound | Induction of supernumerary HCs (in words) [1] | Concentration inducing maximum supernumerary HCs differentiation [1] | other results
1 | N#CC(=C(/N)Sc1ccccc1N)/C(C#N)=C(\N)Sc1ccccc1N [U0126] | did not induce supernumerary HCs | no effect | CDK1 inhibition (IC50) (CDK1/cyclin B): no effect
2 | O=C1Cc2c([nH]c3ccc([N+](=O)[O-])cc23)-c2ccccc2N1 [alsterpaullone] | induced the appearance of supernumerary HCs | 5 :M | 
3 | Cn1cnc2nc(NCCO)nc(NCc3ccccc3)c21 [iso-olomoucine] | no effect | no effect | 
4 | OC[C@H]1O[C@@H](n2cnc3cc(Cl)c(Cl)cc32)[C@H](O)[C@@H]1O [DRB, 6-dichloro-1-beta-D-ribobenzimidazole] | able to induce supernumerary HCs | 0.01 :M | 
5 | Cc1c2oc3c(C)ccc(C(=O)N[C@@H]4C(=O)N[C@H](C(C)C)C(=O)N5CCC[C@H]5C(=O)N(C)CC(=O)N(C)[C@@H](C(C)C)C(=O)O[C@@H]4C)c3nc-2c(C(=O)N[C@@H]2C(=O)N[C@H](C(C)C)C(=O)N3CCC[C@H]3C(=O)N(C)CC(=O)N(C)[C@@H](C(C)C)C(=O)O[C@@H]2C)c(N)c1=O [Actinomycin D, actinomycin D] (I: T[dV]P[Sar][NMeV] / II: T[dV]P[Sar][NMeV]; ester I:1-I:C, II:1-II:C; linker I:N-II:N via Actinocin(9to1)) | able to induce supernumerary HCs | 0.0001 :M | 
6 | O=C1c2ccccc2-[n+]2ccc3c([nH]c4ccccc43)c21 [fascaplysin] | no effect | no effect | CDK1 inhibition (IC50) (CDK1/cyclin B): no effect
7 | CC[C@H](CO)Nc1nc(NCc2ccccc2)c2ncn(C(C)C)c2n1 [roscovitine] | higher number of supernumerary HCs and corresponding SCs | 10 :M | Rate of proliferation of mesenchymal cells in connective tissue ([2]; E19 explants, BrdU): higher in the absence of roscovitine; BrdU labelling of epithelial cells in the area of HCs and SCs ([2]; roscovitine-treated E19 explants, 10 :M BrdU, 2 or 5 DIV): No epithelial cells were labeled with BrdU; Developmental stage dependence of induction of supernumerary HCs ([1]; 10 :M, 5 days of culture, stages E17 to P4): culminated at E17, sightly decreased at E19 and disappeared at P0; Toxicity for cells in the organ of Corti ([1]; 30 and 100 :M): toxic for all cells in the organ of Corti; Time in culture for maximal effect on length of supernumerary zones ([1]; E19 rat explants, 10 :M): 5 DIV; Supernumerary segments as percent of the total length of the explants ([1]; E19 rat explants, 10 :M, 5DIV, mean, S.D., n=4 independent experiments): 52.9%; Time in culture for effect on length of supernumerary zones ([1]; E19 rat explants, 10 :M, significant effect): 4 DIV; Density of HCs per surface unit vs control explants ([1]; roscovitine-treated explants): remained identical to that of control explants; Clinical effect in patients suffering of deafness [3]: An improvement of their troubles was observed; Tolerability in patients suffering of deafness [3]: without any drawbacks; Myosin VIIA positive supernumerary HCs, wild type mice ([4]; E15 or E18 wild type mice): myosin VIIA immunopositive supernumerary HCs, (FIG. 9A) were observed; Supernumerary HCs, Math1 heterozygote mice ([4]; E15.5 Math1 +/beta-gal organs of Corti, 10 :M): supernumerary HCs were present; Myosin VIIA staining, Math1-null mutant mice ([4]; E15.5 Math1-null cochlea): absent; TUNEL positive nuclei [5]: no TUNEL positive nuclei were identified
8 | CC(C)[C@H](CO)Nc1nc(N(C)c2cc(N)cc(Cl)c2)c2ncn(C(C)C)c2n1 [6-methyl-aminopurvalanol, N6-methyl-aminopurvalanol] | no effect | no effect | 
9 | Cn1cnc2c(NCc3ccccc3)nc(NCCO)nc21 [olomoucine] |  | 30 :M | 
10 | indirubin-3′-monoxime | induced the appearance of supernumerary HCs | 10 :M | 
11 | CC(C)[C@H](CO)Nc1nc(Nc2cc(N)cc(Cl)c2)c2ncn(C(C)C)c2n1 [aminopurvalanol] |  | 5 :M | 
